Reference: patent publication US20110044938A1 (NYCOMED GMBH, priority 2006, published 2011)

Tests used:
[1] = tested on: RKO (RKOp27) human colon adenocarcinoma cells; assay: Alamar Blue cell viability assay, anti-proliferative/cytotoxic activity on proliferating RKO subclones; format: cell-based; details: RKOp27, 72 h, RKO p27 uninduced (proliferating) cells, value = class bound given in Table A, read-out: −logIC50 RKO p27 uninduced (proliferating) (converted)
Outline: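 RKOp27 subclones (5000 cells/well) were exposed 24 h after seeding to semi-log compound dilutions in DMEM with 10% FCS, in quadruplicate, for 72 h at 37 °C. Viability was read by Alamar Blue fluorescence (544/590 nm) relative to untreated cells (1% DMSO medium). IC50 came from concentration-effect curves and is reported as −log IC50 [mol/l].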

[2] = tested on: subclones of RKO colon adenocarcinoma cells (RKOp27 or RKOp21) arrested by Ponasterone A; assay: Alamar Blue cell viability assay, cell cycle specific mode of action: cells arrested by ectopic p27Kip1 induced by Ponasterone A versus proliferating cells; format: cell-based; details: Homo sapiens, RKO p27 induced (arrested) cells, 10 μM Ponasterone A, 72 hours, value = class bound given in Table A, read-out: −logIC50 RKO p27 induced (arrested) (converted)
Outline: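 RKOp27 or RKOp21 cells, 15000/well in DMEM/10% FCS, either arrested by p27Kip1 induced with 10 μM Ponasterone A or proliferating without inducer; compound added after 24 h, 72 h at 37° C. Alamar Blue fluorescence (544/590 nm), viability as % of untreated cells; −log IC50 reported.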

| SMILES | IC50 [1] [nM] | IC50 [2] [µM] |
| --- | --- | --- |
| COc1cccc(C(C)CC(=O)Nc2sc3c(c2C#N)CCC(OC(=O)N2CCCC2)C3)c1 (stereo not drawn) [Example 376, Pyrrolidine-1-carboxylic acid 3-cyano-2-(3-(3-methoxy-phenyl)-butanoylamino)-4,5,6,7-tetrahydro-benzo[b] thiophen-6-yl ester] | ≤ 501 | ≥ 10 |
| Cc1nc(CNC(=O)OCC2CCc3c(sc(NC(=O)CC(C)c4cccnc4)c3C#N)C2)cs1 (stereo not drawn) [Example 377, (2-Methyl-thiazol-4-ylmethyl)-carbamic acid 3-cyano-2-(3-pyridin-3-yl-butanoylamino)-4,5,6,7-tetrahydro-benzo[b]thiophen-6-ylmethyl ester] | 501 to 2000 | ≥ 10 |
| CC(CC(=O)Nc1sc2c(c1C#N)CCC(COC(=O)N1CCOCC1)C2)c1ccccc1 (stereo not drawn) [Example 378, Morpholine-4-carboxylic acid 3-cyano-2-[3-phenyl-butanoyl-amino]-4,5,6,7-tetrahydro-benzo[b] thiophen-6-ylmethyl ester] | ≤ 501 | ≥ 10 |
